In patent US20230077723A1, “N-SUBSTITUTED-3,4-(FUSED 5-RING)-5-PHENYL-PYRROLIDINE-2-ONE COMPOUNDS AS INHIBITORS OF ISOQC AND/OR QC ENZYME” (Scenic Immunology B.V., priority 2019, published 2023):

Columns and labels:
human isoQC (S53-L382) = biological target: T1, human isoQC (S53-L382) (Homo sapiens, UniProt Q9NXS2); assay: Assay 3 - isoQC potency, fluorescent enzymatic assay; assay type: biochemical; conditions: fluorescent read-out; read-out: isoQc Pot. Assay No. 3
T1 construct: enzymatically active region of human isoQC (S53-L382; see, e.g., Huang et al., 2011); GST-Enterokinase site (N, cleaved yes); made in house; host or cells: E. coli
T1 sequence (Q9NXS2 53-382): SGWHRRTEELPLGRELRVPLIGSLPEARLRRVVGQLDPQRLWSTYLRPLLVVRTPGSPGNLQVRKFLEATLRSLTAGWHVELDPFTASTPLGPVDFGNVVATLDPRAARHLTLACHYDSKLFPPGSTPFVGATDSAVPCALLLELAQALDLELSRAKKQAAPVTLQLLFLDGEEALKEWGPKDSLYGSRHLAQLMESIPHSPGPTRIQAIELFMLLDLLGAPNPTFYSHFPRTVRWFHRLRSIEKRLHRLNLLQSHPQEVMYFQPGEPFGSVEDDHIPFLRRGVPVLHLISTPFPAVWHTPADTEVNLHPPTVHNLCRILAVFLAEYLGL
Procedure: For this assay specifically, isoQC production was performed slightly different than described in the general methods: The Golgi luminal, enzymatically active region of human isoQC (S53-L382; see, e.g., Huang et al., 2011) was obtained by expression in E. coli of an N-terminally GST Enterokinase and C-terminally 6×His tagged construct in the pET41(+) vector and subsequent purification using Ni-NTA IMAC. Enterokinase digestion ensued, followed by another Ni-NTA IMAC purification, Superdex75 based size exclusion and finally a spin concentration using a 10 kDa molecular weight cutoff. The final protein is formulated in 50 mM Tris-HCl, 150 mM NaCl, 50% Glycerol, pH 7.8.
(§1) Pyroglutamylation was measured by conversion of glutamine-4-amino-7-methylcoumarine (H-Gln-AMC, Bachem) to pyroglutamyl-AMC, which is subsequently a specific substrate for pyroglutamylaminopeptidase (pGAPase, Qiagen), releasing free AMC which can be fluorescently detected. For a typical inhibition assay, 7.5 μL aliquots of threefold dilutions of test compound in 50 mM Tris pH8 buffer were plated in 384-well plates. 15 μL 20 μM h-Gln-AMC (diluted from a 40 mM stock dissolved in 25 mM HEPES using 50 mM Tris-HCl pH 8.0) was added to each well. Finally, 7.5 μL, 3 ng/μL recombinant isoQC enzyme was added and the reaction mixture was incubated for 1 hour at 37° C. A 5 minute incubation at 98° C. was then performed to denature the isoQC enzyme and stop the reaction.
(§2) To detect the amount of pyroglutamyl-AMC formed, a 0.125 U/mL pGAPase enzyme diluted in 50 mM Tris-HCl pH 8.0 containing 10 mM dithiothreitol (DTT) solution was prepared. 25 μL of the pyroglutamylation reaction mixture was transferred into an empty plate and to that, 25 μL of the pGAPase enzyme solution was added. Plates were then incubated for 25 minutes at room temperature before fluorescence readings were taken on an Envision2 plate reader with excitation set at 380 nm and emission at 450 nm.
(§3) DMSO concentrations during the assay never exceeded 1% and activities were compared to controls containing only the same amount of DMSO and no test compound. Controls were taken along containing pyroglutamylated-AMC (Bachem, dissolved at 10 mM in DMSO) instead of H-Gln-AMC to control for pGAPase inhibition. IC50 values are calculated using non-linear regression analysis with GraphPad Prism software.

[1] = biological target: T2, Recombinant QC enzyme (residues 33-361 of uniprot ID Q16769) (Homo sapiens, UniProt Q16769); assay: Assay 5 - QC potency, fluorescent enzymatic assay; assay type: biochemical; conditions: fluorescent read-out; read-out: QC Pot. Assay No. 5
T2 construct: bacterial expression of residues 33-361 of uniprot ID Q16769; His tag (cleaved yes); made in house; host or cells: bacterial expression (pET32a)
T2 sequence (Q16769 33-361): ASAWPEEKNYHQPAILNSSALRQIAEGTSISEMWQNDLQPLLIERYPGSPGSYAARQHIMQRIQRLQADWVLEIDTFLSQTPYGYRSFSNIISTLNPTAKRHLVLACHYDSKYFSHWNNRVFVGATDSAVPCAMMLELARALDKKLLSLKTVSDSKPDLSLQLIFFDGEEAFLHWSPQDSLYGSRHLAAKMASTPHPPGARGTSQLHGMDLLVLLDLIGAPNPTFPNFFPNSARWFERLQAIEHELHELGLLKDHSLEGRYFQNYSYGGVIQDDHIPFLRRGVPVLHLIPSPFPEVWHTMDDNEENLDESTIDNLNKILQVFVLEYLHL
Source text: Recombinant QC enzyme was produced by bacterial expression of residues 33-361 of uniprot ID Q16769, fused to a His tag, codon optimized and cloned into the pET32a plasmid backbone. After scale-up, expression and lysis, protein was purified by Ni-NTA IMAC, dialysed in the presence of Factor Xa, further purified by Ni-NTA reverse IMAC and finally filtrated for size on a Superdex 200 16/60 column. Final protein was concentrated using a spin concentrator at 10 kDa molecular weight cutoff and formulated in 150 mM NaCl, 50 mM Tris-HCl, 50% Glycerol, pH 8.0.
as §1, with “QC” for “isoQC”
as §2
as §3, with “inhibition.” for “inhibition. IC50 values are calculated using non-linear regression analysis with GraphPad Prism software.”
IC50 values are calculated using non-linear regression analysis with GraphPad Prism software.

[2] = test system: pyroglutamylated CD47 (pE-CD47) in KBM7 cells; assay: Assay 6 - cell-based potency assay (pE-CD47 CC2C6 staining vs total CD47); parameters: species or system human; conditions: Homo sapiens, KBM-7, 72 h, CC2C6 signal, read-out: Cell Pot. Assay No. 6
Outline: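 KBM7 cells received a 10-point 2-fold compound series for 72 h at 37 °C, then were stained with anti-CD47 clones 2D3 (total) and CC2C6 (pyroglutamylated) and analysed by flow cytometry on DAPI-negative cells. MFI was scaled between wild-type and CD47- or QPCTL-knockout cells; IC50 came from 3-parameter logistic fit of CC2C6 signal, top fixed at 1.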

Compound	IC50 (human isoQC (S53-L382)) [nM]	IC50 [1] [nM]	IC50 [2] [nM]
COc1n[nH]c2c1C(c1ccc(N3CCC(F)(F)C3)cc1F)N(c1ccc3[nH]cnc3c1)C2=O (centres unmarked) [FRPPO-173]	25 to 100	25 to 100	–
Cc1noc2c1C(c1ccc(-c3cnn(C(F)(F)F)c3)cc1F)N(c1ccc3[nH]cnc3c1)C2=O (centres unmarked) [FRPPO-176]	25 to 100	100 to 5000	–
Cc1[nH]nc2c1C(c1ccc(N3CCC(F)(F)C3)c(F)c1F)N(c1ccc3[nH]cnc3c1)C2=O (centres unmarked) [FRPPO-161]	25 to 100	25 to 100	< 1000
Cc1onc2c1C(c1ccc(-c3cnn(C(F)(F)F)c3)cc1F)N(c1ccc3[nH]cnc3c1)C2=O (centres unmarked) [FRPPO-177]	< 25	25 to 100	–
Cc1nn(C)c2c1C(c1ccc(-c3cnn(C(F)(F)F)c3)cc1F)N(c1ccc3[nH]cnc3c1)C2=O (centres unmarked) [FRPPO-165]	25 to 100	100 to 5000	< 1000
O=C1c2[nH]ncc2C(c2ccc(N3CCC(F)(F)C3)cc2F)N1c1ccc2[nH]cnc2c1 (centres unmarked) [FRPPO-171]	100 to 5000	100 to 5000	–
Cc1nn(C)c2c1C(c1ccc(-n3cc(C(F)(F)F)cn3)cc1F)N(c1ccc3[nH]cnc3c1)C2=O (centres unmarked) [FRPPO-166]	100 to 5000	100 to 5000	1000 to 5000
Cc1nn(C)c2c1C(c1ccc(-c3cnc(C(F)(F)F)s3)cc1F)N(c1ccc3[nH]cnc3c1)C2=O (centres unmarked) [FRPPO-164]	100 to 5000	100 to 5000	< 1000
